Our source for the IC50 and inhibition values is patent US12404279B2, “Deubiquitinase inhibitors and methods of use thereof” (Molecure S.A., priority 2021, dated 2025).

Each structure is given as a SMILES string. Structures can show the parent of a compound that is named as a salt. A value given as a limit tells only on which side of the number the result lay.

Chain of full-length USP7 (Q93009 whole entry): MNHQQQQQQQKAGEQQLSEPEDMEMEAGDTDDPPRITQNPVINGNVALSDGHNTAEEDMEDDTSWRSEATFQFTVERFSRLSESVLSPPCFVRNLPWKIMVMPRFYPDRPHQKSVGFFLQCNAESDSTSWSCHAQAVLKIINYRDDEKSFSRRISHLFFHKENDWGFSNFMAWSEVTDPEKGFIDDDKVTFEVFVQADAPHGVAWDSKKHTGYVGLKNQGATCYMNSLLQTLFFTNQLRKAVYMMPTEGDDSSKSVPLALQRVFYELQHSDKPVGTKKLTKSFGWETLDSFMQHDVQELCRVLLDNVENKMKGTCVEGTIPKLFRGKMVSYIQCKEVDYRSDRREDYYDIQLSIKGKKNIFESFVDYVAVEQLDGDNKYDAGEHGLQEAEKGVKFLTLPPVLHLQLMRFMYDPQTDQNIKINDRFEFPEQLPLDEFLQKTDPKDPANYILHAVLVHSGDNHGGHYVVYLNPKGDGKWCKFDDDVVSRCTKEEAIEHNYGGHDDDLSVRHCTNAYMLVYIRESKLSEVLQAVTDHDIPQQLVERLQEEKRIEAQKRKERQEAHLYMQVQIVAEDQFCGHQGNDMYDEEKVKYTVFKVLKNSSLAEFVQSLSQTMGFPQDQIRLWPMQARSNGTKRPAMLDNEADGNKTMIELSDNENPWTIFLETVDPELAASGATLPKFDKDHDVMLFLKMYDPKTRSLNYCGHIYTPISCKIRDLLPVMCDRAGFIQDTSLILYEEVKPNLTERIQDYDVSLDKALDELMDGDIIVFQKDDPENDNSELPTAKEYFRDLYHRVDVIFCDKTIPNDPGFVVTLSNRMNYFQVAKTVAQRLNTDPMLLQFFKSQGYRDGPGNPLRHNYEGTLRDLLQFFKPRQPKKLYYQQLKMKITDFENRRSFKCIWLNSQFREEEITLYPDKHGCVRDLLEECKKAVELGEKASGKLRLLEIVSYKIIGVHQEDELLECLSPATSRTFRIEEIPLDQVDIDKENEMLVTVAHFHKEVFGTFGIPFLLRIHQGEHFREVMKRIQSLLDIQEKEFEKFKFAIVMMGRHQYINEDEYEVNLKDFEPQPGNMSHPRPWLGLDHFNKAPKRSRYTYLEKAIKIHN

The target of the first assay is full-length USP7 (Homo sapiens (Human), UniProt Q93009). As to the kind of experiment: Enzymatic assay to determine IC50 of USP7 inhibitors (Ubiquitin-Rhodamine 110 cleavage). The class given is biochemical. The following applies: 0.5 nM USP7, 0.5 μM Ubiquitin-Rhodamine 110, 45 min at 37° C. The procedure, abridged:
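Enzyme: 0.5 nM full-length USP7 in HEPES pH 7.5 buffer with NaCl, DTT, BSA and Tween20, given 15 min at room temperature with DTT before compounds were added.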
On to `Cc1cc(C(F)(F)F)nc(-c2ccnc3cc(CN4C(=O)C5C(C4=O)C5(C)C)sc23)c1C(=O)N1CCOCC1` (stereo not drawn) [Example 84, 6,6-dimethyl-3-((7-(4-methyl-3-(morpholine-4-carbonyl)-6-(trifluoromethyl)pyridin-2-yl)thieno[3,2-b]pyridin-2-yl)methyl)-3-azabicyclo[3.1.0]hexane-2,4-dione hydrochloride], for which the IC50 is 500 to 1000 nM. The same measure, in the same setting: for `Cc1nc(C(F)(F)F)cc(-c2ccnc3cc(CN4C(=O)C5C(C4=O)C5(C)C)sc23)c1NC(=O)C1CC(F)(F)C1` (stereo not drawn) [Example 86, N-(4-(2-((6,6-dimethyl-2,4-dioxo-3-azabicyclo[3.1.0]hexan-3-yl)methyl)thieno[3,2-b]pyridin-7-yl)-2-methyl-6-(trifluoromethyl)pyridin-3-yl)-3,3-difluorocyclobutane-1-carboxamide hydrochloride] the value was over 10000 nM; for `Cc1nc(C(F)(F)F)cc(-c2ccnc3cc(CN4C(=O)C5C(C4=O)C5(C)C)sc23)c1NC(=O)C1CCNCC1` (stereo not drawn) [Example 87, N-(4-(2-((6,6-dimethyl-2,4-dioxo-3-azabicyclo[3.1.0]hexan-3-yl)methyl)thieno[3,2-b]pyridin-7-yl)-2-methyl-6-(trifluoromethyl)pyridin-3-yl)piperidine-4-carboxamide hydrochloride], 1000 to 10000 nM; for `Cc1nc(C(F)(F)F)cc(-c2ccnc3cc(CN4C(=O)C5C(C4=O)C5(C)C)sc23)c1CC1CCNC1` (stereo not drawn) [Example 89, 6,6-dimethyl-3-((7-(2-methyl-3-(pyrrolidin-3-ylmethyl)-6-(trifluoromethyl)pyridin-4-yl)thieno[3,2-b]pyridin-2-yl)methyl)-3-azabicyclo[3.1.0]hexane-2,4-dione hydrochloride], under 500 nM. `Cc1cc(C(F)(F)F)nc(-c2ccnc3cc(CN4C(=O)C5C(C4=O)C5(C)C)sc23)c1C[C@H]1CNCCO1` (stereo partly drawn) [Example 95, 6,6-dimethyl-3-((7-(4-methyl-3-(((S)-morpholin-2-yl)methyl)-6-(trifluoromethyl)pyridin-2-yl)thieno[3,2-b]pyridin-2-yl)methyl)-3-azabicyclo[3.1.0]hexane-2,4-dione dihydrochloride]: the half-inhibitory concentration (IC50) was under 500 nM. The same measure, in the same setting: for `Cc1cc(C(F)(F)F)nc(-c2ccnc3cc(CN4C(=O)C5C(C4=O)C5(C)C)sc23)c1C[C@@H]1CNCCO1` (stereo partly drawn) [Example 96, 6,6-dimethyl-3-((7-(4-methyl-3-(((R)-morpholin-2-yl)methyl)-6-(trifluoromethyl)pyridin-2-yl)thieno[3,2-b]pyridin-2-yl)methyl)-3-azabicyclo[3.1.0]hexane-2,4-dione dihydrochloride] the value was under 500 nM. On the same count and under the same terms, as for `Cc1cc(C(F)(F)F)nc(-c2ccnc3cc(CN4C(=O)C5C(C4=O)C5(C)C)sc23)c1C[C@H]1CN(C)CCO1` (stereo partly drawn) [Example 97, 6,6-dimethyl-3-((7-(4-methyl-3-(((S)-4-methylmorpholin-2-yl)methyl)-6-(trifluoromethyl)pyridin-2-yl)thieno[3,2-b]pyridin-2-yl)methyl)-3-azabicyclo[3.1.0]hexane-2,4-dione dihydrochloride], the figure is 1000 to 10000 nM. Same read-out and setting: as for `Cc1cc(C(F)(F)F)nc(-c2ccnc3cc(CN4C(=O)C5C(C4=O)C5(C)C)sc23)c1C[C@@H]1CN(C)CCO1` (stereo partly drawn) [Example 98, 6,6-dimethyl-3-((7-(4-methyl-3-(((R)-4-methylmorpholin-2-yl)methyl)-6-(trifluoromethyl)pyridin-2-yl)thieno[3,2-b]pyridin-2-yl)methyl)-3-azabicyclo[3.1.0]hexane-2,4-dione dihydrochloride], the figure is under 500 nM; as for `CC1(C)C2C(=O)N(Cc3cc4nccc(-c5cc(C(F)(F)F)cnc5C[C@@H]5CNCCO5)c4s3)C(=O)C21` (stereo partly drawn) [Example 99, 6,6-dimethyl-3-((7-(2-(((R)-morpholin-2-yl)methyl)-5-(trifluoromethyl)pyridin-3-yl)thieno[3,2-b]pyridin-2-yl)methyl)-3-azabicyclo[3.1.0]hexane-2,4-dione 2,2,2-trifluoroacetate], under 500 nM.

`Cc1nc(C(F)(F)F)cc(-c2ccnc3cc(CN4C(=O)C5C(C4=O)C5(C)C)sc23)c1CN1CCNCC1` (stereo not drawn) [Example 102, 6,6-dimethyl-3-((7-(2-methyl-3-(piperazin-1-ylmethyl)-6-(trifluoromethyl)pyridin-4-yl)thieno[3,2-b]pyridin-2-yl)methyl)-3-azabicyclo[3.1.0]hexane-2,4-dione 2,2,2-trifluoroacetate] registered an IC50 of 1000 to 10000 nM. The compound `Cc1nc(C(F)(F)F)cc(-c2ccnc3cc(CN4C(=O)C5C(C4=O)C5(C)C)sc23)c1CN1CC(F)(F)C1` (stereo not drawn) [Example 103, 3-((7-(3-((3,3-difluoroazetidin-1-yl)methyl)-2-methyl-6-(trifluoromethyl)pyridin-4-yl)thieno[3,2-b]pyridin-2-yl)methyl)-6,6-dimethyl-3-azabicyclo[3.1.0]hexane-2,4-dione 2,2,2-trifluoroacetate] registered a half-maximal inhibitory concentration (IC50) of 1000 to 10000 nM. The same measure, in the same setting: as for `Cc1cc(C(F)(F)F)nc(-c2ccnc3cc(CN4C(=O)C5C(C4=O)C5(C)C)sc23)c1C(=O)N1CC[C@H](C(F)F)C1` (stereo partly drawn) [Example 104, 3-((7-(3-((S)-3-(difluoromethyl)pyrrolidine-1-carbonyl)-4-methyl-6-(trifluoromethyl)pyridin-2-yl)thieno[3,2-b]pyridin-2-yl)methyl)-6,6-dimethyl-3-azabicyclo[3.1.0]hexane-2,4-dione hydrochloride], the figure is under 500 nM; as for `Cc1cc(C(F)(F)F)nc(-c2ccnc3cc(CN4C(=O)C5C(C4=O)C5(C)C)sc23)c1C(=O)N1CC[C@H](CF)C1` (stereo partly drawn) [Example 105, 3-((7-(3-((S)-3-(fluoromethyl)pyrrolidine-1-carbonyl)-4-methyl-6-(trifluoromethyl)pyridin-2-yl)thieno[3,2-b]pyridin-2-yl)methyl)-6,6-dimethyl-3-azabicyclo[3.1.0]hexane-2,4-dione hydrochloride], under 500 nM; as for `Cc1cc(C(F)(F)F)nc(-c2ccnc3cc(CN4C(=O)C5C(C4=O)C5(C)C)sc23)c1C(=O)N1C[C@@H](N)[C@@H](C)C1` (stereo partly drawn) [Example 106, 3-((7-(3-((3S,4S)-3-amino-4-methylpyrrolidine-1-carbonyl)-4-methyl-6-(trifluoromethyl)pyridin-2-yl)thieno[3,2-b]pyridin-2-yl)methyl)-6,6-dimethyl-3-azabicyclo[3.1.0]hexane-2,4-dione hydrochloride], under 500 nM. On the same count and under the same terms, as for `Cc1cc(C(F)(F)F)nc(-c2ccnc3cc(CN4C(=O)C5C(C4=O)C5(C)C)sc23)c1C(=O)N1C[C@@H](C)[C@H](N)C1` (stereo partly drawn) [Example 107, 3-((7-(3-((3S,4R)-3-amino-4-methylpyrrolidine-1-carbonyl)-4-methyl-6-(trifluoromethyl)pyridin-2-yl)thieno[3,2-b]pyridin-2-yl)methyl)-6,6-dimethyl-3-azabicyclo[3.1.0]hexane-2,4-dione hydrochloride], the figure is under 500 nM; as for `Cc1cc(C(F)(F)F)nc(-c2ccnc3cc(CN4C(=O)C5C(C4=O)C5(C)C)sc23)c1C(=O)N1C[C@H]2CCN[C@H]2C1` (stereo partly drawn) [Example 108, 6,6-dimethyl-3-((7-(4-methyl-3-((3aR,6aR)-octahydropyrrolo[3,4-b]pyrrole-5-carbonyl)-6-(trifluoromethyl)pyridin-2-yl)thieno[3,2-b]pyridin-2-yl)methyl)-3-azabicyclo[3.1.0]hexane-2,4-dione dihydrochloride], under 500 nM; as for `Cc1cc(C(F)(F)F)nc(-c2ccnc3cc(CN4C(=O)C5C(C4=O)C5(C)C)sc23)c1C(=O)N1CC[C@H](NC(=O)[C@@H](N)C(C)C)C1` (stereo partly drawn) [Example 109, (2S)-2-amino-N-((3S)-1-(2-(2-((6,6-dimethyl-2,4-dioxo-3-azabicyclo[3.1.0]hexan-3-yl)methyl)thieno[3,2-b]pyridin-7-yl)-4-methyl-6-(trifluoromethyl)nicotinoyl)pyrrolidin-3-yl)-3-methylbutanamide dihydrochloride], under 500 nM.

Consider `Cc1cc(C(F)(F)F)nc(-c2ccnc3cc(CN4C(=O)C5C(C4=O)C5(C)C)sc23)c1C(=O)N1CC[C@H](NC(=O)[C@H](C)N)C1` (stereo partly drawn) [Example 110, (2S)-2-amino-N-((3S)-1-(2-(2-((6,6-dimethyl-2,4-dioxo-3-azabicyclo[3.1.0]hexan-3-yl)methyl)thieno[3,2-b]pyridin-7-yl)-4-methyl-6-(trifluoromethyl)nicotinoyl)pyrrolidin-3-yl)propanamide dihydrochloride], for which the half-inhibitory concentration (IC50) was 500 to 1000 nM.

Staying with this assay, now noted: at 1 μM of the test compound; given where IC50 not determined yet; read-out: percent value of inhibition of USP7 activity.
For the compound `Cc1cc(C(F)(F)F)nc(-c2ccnc3cc(CN4C(=O)C5C(C4=O)C5(C)C)sc23)c1C(=O)NC1CCNCC1` (stereo not drawn) [Example 111, 2-(2-((6,6-dimethyl-2,4-dioxo-3-azabicyclo[3.1.0]hexan-3-yl)methyl)thieno[3,2-b]pyridin-7-yl)-4-methyl-N-(piperidin-4-yl)-6-(trifluoromethyl)nicotinamide dihydrochloride], the inhibition at 1 µM is under 20%.

Staying with this assay, now noted: read-out: percent value of inhibition of USP7 activity.
As for `Cc1ccnc(CC2CNCCO2)c1-c1ccnc2cc(CN3C(=O)C4C(C3=O)C4(C)C)sc12` (stereo not drawn) [Example 93, 6,6-dimethyl-3-((7-(4-methyl-2-(morpholin-2-ylmethyl)pyridin-3-yl)thieno[3,2-b]pyridin-2-yl)methyl)-3-azabicyclo[3.1.0]hexane-2,4-dione 2,2,2-trifluoroacetate], the inhibition at 1 µM is under 20%. Still for that read-out and setting: for `Cc1ccnc(-c2ccnc3cc(CN4C(=O)C5C(C4=O)C5(C)C)sc23)c1C(O)[C@@H]1CNCCO1` (stereo partly drawn) [Example 101, 3-((7-(3-(hydroxy((S)-morpholin-2-yl)methyl)-4-methylpyridin-2-yl)thieno[3,2-b]pyridin-2-yl)methyl)-6,6-dimethyl-3-azabicyclo[3.1.0]hexane-2,4-dione 2,2,2-trifluoroacetate] the value was under 20%.

A word on the IC50: it is the concentration needed to halve the response being measured. A lower IC50 goes with greater potency. As usually defined, the inhibition is the change of the read-out against control, counted positive when it falls.
